Structures are written as SMILES. In brackets after ≈: the same amount, converted by molar mass. Activity calls are given as the source filed them. The calls are words filed in the database; no cut-off is given here.

One assay relates to Plasmodium yoelii. The experiment in a line: (§1) Compound was evaluated for uM concentration. The note with it: concentration not given here.
Regarding `CCOC(=O)c1cnc2ccc(C3(CCC(=O)NC(C)CC)CCC(=O)NC3=O)cc2c1O` (configuration not stated), the inhibition (in general, the relative decrease from the control value, in per cent) was 17%.

The compound `CCOC(=O)c1cnc2ccc(C3(CCC(=O)OC)CCC(=O)NC3=O)cc2c1O` (configuration not stated) came in with an inhibition of 11%.

A further assay concerns Plasmodium yoelii. Described as §1. The note with it: concentration not given here.
The compound `CCOC(=O)c1cnc2ccc(C3(CCC(=O)NC(C)CC)CCC(=O)NC3=O)cc2c1O` (configuration not stated) gave an inhibition of 42%.

Regarding `CCN(CC)CCCC(C)Nc1ccnc2cc(Cl)ccc12` (configuration not stated) [CHLOROQUINE], the inhibition turned out to be 47%.

The compound `CCOC(=O)c1cnc2ccc(C3(CCC(=O)OC)CCC(=O)NC3=O)cc2c1O` (configuration not stated) had an inhibition of 40%.

Another assay has as its system Plasmodium yoelii. The experiment in a line: (§2) Compound was evaluated for uM. On the set-up: concentration or dose not given beside the values. The note with it: concentration not given here.
As to `CCOC(=O)c1cnc2ccc(C3(CCC(=O)NC(C)CC)CCC(=O)NC3=O)cc2c1O` (configuration not stated), the inhibition is 71%.

The compound `CCOC(=O)c1cnc2cc(C3CCC(=O)O3)ccc2c1O` (configuration not stated) returned an inhibition of 46%.

In the case of `CCCCNC(=O)CCC1(c2ccc3ncc(C(=O)OCC)c(O)c3c2)CCC(=O)NC1=O` (configuration not stated), the inhibition was found to be 85%.

As to `CCOC(=O)c1cnc2ccc(C3(CCC(=O)CCc4ccoc4)CCC(=O)NC3=O)cc2c1O` (configuration not stated), the inhibition was found to be 82%.

Take `CCOC(=O)c1cnc2ccc(C3(CCC(=O)NCCC(C)C)CCC(=O)NC3=O)cc2c1O` (configuration not stated): the inhibition worked out at 88%.

Compound `CCOC(=O)c1cnc2cc(C3=NNC(=O)CC3)ccc2c1O` registered an inhibition of 69%.

`CCOC(=O)c1cnc2ccc(C3(CCC(=O)OC)CCC(=O)NC3=O)cc2c1O` (configuration not stated) displayed an inhibition of 66%.

As for `CCOC(=O)c1cnc2ccc(C3(CCC(=O)CCc4ccc(OC)c(OC)c4)CCC(=O)NC3=O)cc2c1O` (configuration not stated), the inhibition turned out to be 86%.

In a further assay the test system is Plasmodium yoelii. The experiment in a line: Compound was evaluated for anti-heme polymerase activity in intact erythrocytes infected with drug resistant Plasmodium yoelii at 1.0 uM concentration. It is filed as cell-based.
Settings: not given
In turn, `CCOC(=O)c1cnc2ccc(C3(CCC(=O)NC(C)CC)CCC(=O)NC3=O)cc2c1O` (configuration not stated) yielded an inhibition of 68%.

On to `CCOC(=O)c1cnc2ccc(C3(CCC(=O)OC)CCC(=O)NC3=O)cc2c1O` (configuration not stated), for which the inhibition is 62%.

The next assay deals with Plasmodium yoelii. The assay can be described thus: Compound was evaluated for uM: No effect.
Settings: not given
Regarding `CCOC(=O)c1cnc2cc(CO)c(O)cc2c1O`, the inhibition result was “inactive”.

The subject of a further assay is Plasmodium yoelii. Described as §2. The note with it: concentration not given here.
`CCN(CC)CCCC(C)Nc1ccnc2cc(Cl)ccc12` (configuration not stated) [CHLOROQUINE] showed an inhibition of 46%.

A further assay concerns Trichophyton benhamiae. The assay can be described thus: In vitro minimum inhibitory concentration against Trichophyton mentagrophytes. The assay is classed as functional, Arthroderma benhamiae.
Settings: not given
On to `CCOC(=O)c1cnc2cc(CO)c(O)cc2c1O`, for which the minimum inhibitory concentration (MIC) – broadly, the lowest concentration that inhibits growth of the organism – stood at 50 µg/mL (≈ 190 µM).

For the compound `CCOC(=O)c1cnc2ccc(C3(CCC(=O)NC(C)CC)CCC(=O)NC3=O)cc2c1O` (configuration not stated), the lowest concentration to inhibit growth (MIC) was 50 µg/mL (≈ 110 µM).

Take `CCOC(=O)c1cnc2cc(C3CCC(=O)O3)ccc2c1O` (configuration not stated): the lowest concentration to inhibit growth (MIC) was 50 µg/mL (≈ 166 µM).

On to `CCCCNC(=O)CCC1(c2ccc3ncc(C(=O)OCC)c(O)c3c2)CCC(=O)NC1=O` (configuration not stated), for which the MIC is 50 µg/mL (≈ 110 µM).

`CCOC(=O)c1cnc2ccc(C3(CCC(=O)CCc4ccoc4)CCC(=O)NC3=O)cc2c1O` (configuration not stated) had an MIC of 50 µg/mL (≈ 104 µM).

`CCOC(=O)c1cnc2ccc(C3(CCC(=O)NCCC(C)C)CCC(=O)NC3=O)cc2c1O` (configuration not stated) gave an MIC of 50 µg/mL (≈ 106 µM).

In the case of `CCOC(=O)c1cnc2cc(C3=NNC(=O)CC3)ccc2c1O`, the MIC came out at 50 µg/mL (≈ 160 µM).

On to `CCN(CC)CCCC(C)Nc1ccnc2cc(Cl)ccc12` (configuration not stated) [CHLOROQUINE], for which the minimal inhibitory concentration (MIC) turned out to be 50 µg/mL (≈ 156 µM).

On to `CCOC(=O)c1cnc2ccc(C3(CCC(=O)OC)CCC(=O)NC3=O)cc2c1O` (configuration not stated), for which the MIC turned out to be 50 µg/mL (≈ 121 µM).

The compound `CCOC(=O)c1cnc2ccc(C3(CCC(=O)CCc4ccc(OC)c(OC)c4)CCC(=O)NC3=O)cc2c1O` (configuration not stated) had an MIC of 50 µg/mL (≈ 91.1 µM).

The record behind these values is ChEMBL document CHEMBL1150996, “Syntheses and exploration of new biological activities in ethyl 6/7-substituted and 6, 7-disubstituted quinolin-4-one-3-carboxylates” (1996).
